Patent US20100099693A1, “NEW COMBINATION FOR USE IN THE TREATMENT OF INFLAMMATORY DISORDERS” (priority 2007, published 2010)

Columns and labels:
MonoMac-6 (MM6) cells = test: MonoMac-6 macrophage proliferation assay (WST-1 reagent); type: cell-based, human; details: single drug, 48 hours; for inhibition at 10 µM / inhibition at 30 µM / inhibition at 100 µM: Homo sapiens, MONO-MAC-6, WST-1, mean n=4; for inhibition at 10 µM: final concentration 10 μM; for inhibition at 30 µM: final concentration 30 μM; for inhibition at 100 µM: final concentration 100 μM
Method: Cells from the human macrophage cell-line MonoMac-6 (MM6) (Ziegler-Heitbrock et al, Int. J. Cancer, 41, 456 (1988)) were cultured (37° C./5% CO2) in RPMI-1640 medium supplemented with 1 mM sodium pyruvate, 1× nonessential amino acids, 1-100 μg/mL insulin, 1 mM oxalacetic acid, 100 units/mL penicillin, 100 μg/mL streptomycin and 10% (v/v) fetal bovine serum. At the start of the experiment, MM6 cells were seeded in 96-well plates at a density of 1×10^5 cells/mL (100 μl per well). Proliferation of the MM6 cells was measured using the Cell Proliferation Reagent WST-1 (Roche Diagnostics Scandinavia AB, Bromma, Sweden) or by cell counting using a microscope. The WST-1 reagent is designed to be used for spectrophotometric quantification of e.g. cell growth in proliferation assays and was used according to the manufacturers' instructions. The wavelength for measuring absorbance was 450 nm and the absorbance of all untreated control cells exposed to the WST-1 reagent was between 1.0 and 2.5. Stock solutions of ramatroban (sodium salt; ramatroban was purchased from Cayman Chemical, Ann Arbor, Mich., USA as free acid and converted to sodium salt by adding one equivalent of aqueous NaOH) and rosuvastatin (sodium salt; rosuvastatin was extracted and purified from commercially available Crestor® tablets and isolated as sodium salt as described in Bioorganic & Medicinal Chemistry, Vol. 5, No. 5, pp 437-444, 1997) were made in sterile saline.
The effects of ramatroban and/or rosuvastatin (added at the start of the experiments) on MM6 cell proliferation were studied 48 hours after start of the experiments using the WST-1 reagent described above.
The procedure described in Example 19 was repeated for atorvastatin (sodium salt; received as atorvastatin calcium as a gift from Biocon, Ltd., Bangalore, India and converted into sodium salt by firstly converting the calcium salt into the free acid by addition of aqueous hydrochloric acid and then, after isolation via extraction, adding one equivalent of aqueous NaOH).
The procedure described in Example 19 was repeated for simvastatin (sodium salt; simvastatin was received as the lactone as a gift from Biocon, Ltd., Bangalore, India and isolated as the sodium salt following lactone ring opening via hydrolysis using one equivalent of NaOH in water and ethanol at 60° C.).

[1] = system: Rat aortic smooth muscle cells (RASMC); test: Rat aortic smooth muscle cell proliferation assay (WST-1 reagent, 5% FBS stimulated); type: cell-based; details: single drug, 48 hours, F-12/5% FBS; for inhibition at 0.1 µM: final concentration 0.1 μM; for inhibition at 0.1 µM / inhibition at 1 µM / inhibition at 10 µM: mean n=3; for inhibition at 1 µM: final concentration 1 μM; for inhibition at 10 µM: final concentration 10 μM
Method: Rat aortic smooth muscle cells (RASMC) were isolated as previously described (Hellin et al, Arterioscler. Thromb. Vasc. Biol., 17, 1977 (1997)). The cells were cultired (37° C./5% CO2) in Ham's medium F-12 supplemented with 10% fetal bovine serum (FBS), 50 μg/mL L-ascorbic acid, 50 μg/mL streptomycin and 50 IU/mL penicillin (F-12/10% FBS), grown to confluence, serially passaged by trypsinization, and used in experiments after 2-7 passages. The RASMC were seeded in 96-well plates at a density of approximately 5×10^3 cells per well in F-12/10% FBS (100 μl per well). After 72 hours, the cells were synchronized in G0/G1 phase by starvation in Ham's medium F-12 supplemented with 0.1% bovine serum albumin (BSA), 50 μg/mL L-ascorbic acid, 50 μg/mL streptomycin and 50 IU/mL penicillin (F-12/0.1% BSA) for 48 hours. After the starvation, the cells were 70-80% confluent. The experiment was then started by changing to F-12 medium containing 5% FBS, 50 μg/mL L-ascorbic acid, 50 μg/mL streptomycin and 50 IU/mL penicillin (F-12/5% FBS), without (positive control cells) or with the test drugs (drug treated cells) as described below. For comparison, some cells remained in F-12/0.1% BSA (negative control cells).
Proliferation of the RASMC cells was measured using the Cell Proliferation Reagent WST-1 (Roche Diagnostics Scandinavia AB, Bromma, Sweden). The WST-1 reagent is designed to be used for spectrophotometric quantification of e.g. cell growth in proliferation assays and was used according to the manufacturers' instructions. The wavelength for measuring absorbance was 450 nm and the absorbance of all untreated positive control cells exposed to the WST-1 reagent was between 1 and 2.7.
Stock solutions of ramatroban (sodium salt; see Example 19 above) and rosuvastatin (sodium salt; see Example 19 above) were made in sterile saline.
48 hours after start of the experiment as described above, the mean positive control RASMC proliferation (measured using the WST-1 reagent) was 225% of that of the negative control RASMC (n=12 in both groups). The effects of ramatroban and/or rosuvastatin (added to cells in F-12/5% FBS at the start of the experiment) on RASMC proliferation were studied 48 hours after start of the experiment.
The procedure described in Example 22 was repeated for atorvastatin (sodium salt; see Example 20 above).
The procedure described in Example 22 was repeated for simvastatin (sodium salt; see Example 21 above).

Structure (SMILES) | inhibition at 10 µM (MonoMac-6 (MM6) cells) [%] | inhibition at 30 µM (MonoMac-6 (MM6) cells) [%] | inhibition at 100 µM (MonoMac-6 (MM6) cells) [%] | inhibition at 0.1 µM [1] [%] | inhibition at 1 µM [1] [%] | inhibition at 10 µM [1] [%] | effect on MM6 proliferation (in words) (MonoMac-6 (MM6) cells; 10 μM, data not shown) | inhibition at 100 µM ([1]; final concentration 100 μM, mean n=6) [%]
CC(C)c1c(C(=O)Nc2ccccc2)c(-c2ccccc2)c(-c2ccc(F)cc2)n1CC[C@@H](O)C[C@@H](O)CC(=O)O [atorvastatin] | 16.8 | 27.8 | 71.7 | 27.4 | 0 | 18.9 |  | 
O=C(O)CCn1c2c(c3ccccc31)C[C@H](NS(=O)(=O)c1ccc(F)cc1)CC2 [ramatroban] |  |  | 15.2 |  |  |  | effect similar to that of 100 μM of ramatroban | 11.9
CC(C)c1nc(N(C)S(C)(=O)=O)nc(-c2ccc(F)cc2)c1/C=C/[C@@H](O)C[C@@H](O)CC(=O)O [rosuvastatin] | 11.5 | 31.2 | 70.1 | 5.3 | 0 | 21.7 |  | 
CCC(C)(C)C(=O)O[C@H]1C[C@@H](C)C=C2C=C[C@H](C)[C@H](CC[C@@H]3C[C@@H](O)CC(=O)O3)[C@H]21 [simvastatin] | 21.3 | 68.1 | 85 | 23.8 | 0 | 74.3 |  | 
